Data as given in US20220402862A1 (Intellia Therapeutics, Inc., priority 2019, published 2022).

What was measured:
[1] = Dynamic light scattering of LNPs: Z-average diameter, number average diameter, PDI; type: physicochemical; conditions: LNP, sg:mRNA 1:1, N/P about 6, 50/9/38/3; Table 2, Experiments 2-20
Summary of the method: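 Values reported are the Z-average (intensity-weighted mean size), the number-average diameter and the PDI (spread of sizes, 0 = fully uniform). All three came from dynamic light scattering of LNP preparations after dilution in PBS.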

Transthyretin (TTR) = test: Serum TTR ELISA in mice after LNP dosing; type: in vivo, CD-1 female mice; conditions: guide G282 experiments; for Serum TTR % TSS: mouse serum TTR relative to TSS control; for Serum TTR: mouse serum, ELISA
Summary of the method: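 Serum mouse TTR was quantified by ELISA at 10,000-fold dilution for 0.1 mg/kg and 10,000/2,500-fold for 0.3 mg/kg. Samples came from female CD-1 mice (6–10 weeks) killed 6 or 7 days after a single intravenous LNP dose, usually 0.1 mg/kg.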

[2] = RNA encapsulation efficiency of LNPs (Ribogreen fluorescence assay); type: physicochemical; conditions: LNP, sg:mRNA 1:1, N/P about 6, amine lipid/DSPC/cholesterol/PEG-2k-DMG 50/9/38/3; Table 2, Experiments 2-20
Summary of the method: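 Encapsulation efficiency is (Total RNA − Free RNA)/Total RNA. Free RNA was quantified by RiboGreen fluorescence (488/525 nm, ~10 min, RT, dark) in plain TE buffer; total RNA was quantified after LNP lysis with 0.2% Triton X-100, both against RNA standard curves.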

[3] = pKa measurement of unformulated amine lipid (fluorescence, method of Jayaraman et al.); type: physicochemical; conditions: 100 μM in 0.1 M phosphate buffer, pH 2.0-12.0
Protocol: The pKa of each amine lipid was determined according to the method in Jayaraman, et al. (Angewandte Chemie, 2012) with the following adaptations. […] Lipid was diluted to 100 μM in 0.1 M phosphate buffer (Boston Bioproducts) where the pH ranged from 2.0-12.0. Fluorescence intensity was measured using excitation and emission wavelengths of 321 nm and 448 nm.

Row | Number mean (nm) [1] | PDI [1] | Z-avg (nm) [1] | Encapsulation (%) [2] | pKa [3] | Compound | Serum TTR % TSS (Transthyretin (TTR)) | Serum TTR (Transthyretin (TTR))
1 | 74.41 nm | 0.009 | 89.55 nm | 99% | 6.16 | CCCCCC/C=C\COC(=O)CCCCCCCC(=O)OCC(COC(=O)CCC(OCCCCCCCCC)OCCCCCCCCC)COC(=O)OCCCN(CC)CC (centres unmarked) [Compound 83, (Z)-1-(3-((4,4-bis(nonyloxy)butanoyl)oxy)-2-((((3-(diethylamino)propoxy)carbonyl)oxy)methyl)propyl) 9-(non-2-en-1-yl) nonanedioate] | 54% | 488 µg/mL
2 | 65.94 nm | 0.019 | 81.55 nm | 98% | 5.76 | CCCCC/C=C\C/C=C\CCCCCCCC(=O)OCC(C)(COC(=O)CCC(OCCCCCCCC)OCCCCCCCC)COC(=O)OCCCN(CC)CC (centres unmarked) [Compound 96, 3-((4,4-bis(octyloxy)butanoyl)oxy)-2-((((3-(diethylamino)propoxy)carbonyl)oxy)methyl)-2-methylpropyl (9Z,12Z)-octadeca-9,12-dienoate] | 58% | 449 µg/mL
3 | 61 nm | 0.080 | 87 nm | 99% | 7.65 | CCCCC/C=C\C/C=C\CCCCCCCC(=O)OCC(COC(=O)CCCCN(C)C)COC(=O)CCC(OCCCCCCCC)OCCCCCCCC (centres unmarked) [Compound 25] | 112% | 1013 µg/mL
4 | 74.5 nm | 0.029 | 91.1 nm | 99% | 6.14 | CCCCCCCCCC(CC)OC(=O)CCCCCCCC(=O)OCC(COC(=O)CCC(OCCCCCCCC)OCCCCCCCC)COC(=O)OCCCN(CC)CC (centres unmarked) [Compound 95, 1-(3-((4,4-bis(octyloxy)butanoyl)oxy)-2-((((3-(diethylamino)propoxy)carbonyl)oxy)methyl)propyl) 9-(dodecan-3-yl) nonanedioate] | 54% | 408 µg/mL
5 | 87.3 nm | 0.016 | 105.8 nm | 98% | 6.21 | CCCCCCCCCCOC(=O)CCCCCCCC(=O)OCC(COC(=O)CCCCCC(=O)OC(CCCCCCCC)CCCCCCCC)COC(=O)OCCC1CCCN1C (centres unmarked) [Compound 80, 1-decyl 9-(3-((7-(heptadecan-9-yloxy)-7-oxoheptanoyl)oxy)-2-((((2-(1-methylpyrrolidin-2-yl)ethoxy)carbonyl)oxy)methyl)propyl) nonanedioate] | 116% | 873 µg/mL
6 | 85.4 nm | 0.006 | 101.8 nm | 99% | 6.16 | CCCCCCCCCCOC(=O)CCCCCCCC(=O)OCC(COC(=O)CCCC(=O)OC(CCCCCCCC)CCCCCCCC)COC(=O)OCCCN(CC)CC (centres unmarked) [Compound 77, 1-decyl 9-(3-(((3-(diethylamino)propoxy)carbonyl)oxy)-2-(((5-(heptadecan-9-yloxy)-5-oxopentanoyl)oxy)methyl)propyl) nonanedioate] | 53% | 478 µg/mL
7 | 81.23 nm | 0.016 | 99.01 nm | 98% | 6.16 | CCCCCC/C=C\COC(=O)CCCCCCCC(=O)OCC(COC(=O)CCCC(=O)OC(CCCCCCCC)CCCCCCCC)COC(=O)OCCCN(CC)CC (centres unmarked) [Compound 86, (Z)-1-(3-(((3-(diethylamino)propoxy)carbonyl)oxy)-2-(((5-(heptadecan-9-yloxy)-5-oxopentanoyl)oxy)methyl)propyl) 9-(non-2-en-1-yl) nonanedioate] | 64% | 582 µg/mL
8 | 64.79 nm | 0.024 | 79.81 nm | 97% | 7.34 | CCCCC/C=C\C/C=C\CCCCCCCC(=O)OCC(COC(=O)CCC(OCCCCCCCC)OCCCCCCCC)COC(=O)NCC1CCCN1C (centres unmarked) [Compound 39, 3-((4,4-bis(octyloxy)butanoyl)oxy)-2-(((((1-methylpyrrolidin-2-yl)methyl)carbamoyl)oxy)methyl)propyl (9Z,12Z)-octadeca-9,12-dienoate] | 82% | 656 µg/mL
9 | 83.64 nm | 0.019 | 99.24 nm | 99% | 6.13 | CCCCCCCCCCOC(=O)CCCCCCCC(=O)OCC(COC(=O)CCC(OCCCCCCCCC)OCCCCCCCCC)COC(=O)OCCCN(CC)CC (centres unmarked) [Compound 79, 1-(3-((4,4-bis(nonyloxy)butanoyl)oxy)-2-((((3-(diethylamino)propoxy)carbonyl)oxy)methyl)propyl) 9-decyl nonanedioate] | 39% | 351 µg/mL
10 | 69.23 nm | 0.007 | 82.93 nm | 98% | 7.3 | CCCCC/C=C\C/C=C\CCCCCCCC(=O)OCC(COC(=O)CCC(OCCCCCCCC)OCCCCCCCC)COC(=O)NC(C)CN(C)C (centres unmarked) [Compound 45, 3-((4,4-bis(octyloxy)butanoyl)oxy)-2-((((1-(dimethylamino)propan-2-yl)carbamoyl)oxy)methyl)propyl (9Z,12Z)-octadeca-9,12-dienoate] | 98% | 1096 µg/mL
11 | 40.95 nm | 0.086 | 58.93 nm | 97% | 5.9 | CCCCC/C=C\C/C=C\CCCCCCCC(=O)OCC(COC(=O)CCC(OCCCCCCCC)OCCCCCCCC)COC(=O)N1CCN(C)CC1 (centres unmarked) [Compound 47, 3-((4,4-bis(octyloxy)butanoyl)oxy)-2-((((9Z,12Z)-octadeca-9,12-dienoyl)oxy)methyl)propyl 4-methylpiperazine-1-carboxylate] | 96% | 1075 µg/mL
